Data as given in patent publication US7067482B2, “Cross-linked glycopeptide-cephalosporin antibiotics” (Theravance, Inc., priority 2003, dated 2006).
≈ marks a conversion by molar mass, not a printed value.

Key:
MRSA 33591 [1] = assay: Time-kill assay; type: cell-based, Staphylococcus aureus; conditions: in 24 hours; bactericidal = >=3 log decrease in bacterial cell numbers
Method: This time-kill assay is a method for measuring the rate of bactericidal activity of a test compound. These procedures are similar to those described in V. Lorian, “Antibiotics in Laboratory Medicine”, Fourth Edition, Williams and Wilkins (1996), pages 104–105. A rapid time-kill is desirable to quickly prevent bacterial colonization and reduce host tissue damage.
Bacterial inocula were prepared as described in Example 6 for determination of MIC. Bacteria were diluted in prewarmed media in shake flasks and incubated with shaking (200 rpm, 35° C.). At 0, 1, 4, and 24 hours samples were withdrawn from the flasks and bacteria were enumerated by plate counting. Subsequent to the initial sampling, a test compound to be assayed was added to the shake flask culture. Plate counts at these intervals previous to and following addition of the compound were expressed graphically in a time-kill curve. Bactericidal activity is defined as a greater than or equal to 3 log decrease (reduction greater than or equal to 99.9%) in bacterial cell numbers by 24 hours.
By comparison, vancomycin was bactericidal against MRSA 33591 at a concentration of 4 μg/mL in 24 hours.

[2] = test system: methicillin-susceptible Staphylococcus aureus (MSSA 13709) and methicillin-resistant Staphylococcus aureus (MRSA 33591); assay: In vivo efficacy studies in neutropenic mice (thigh infection); conditions: iv, 24 h, read-out: ED50 (dose required to produce 50% of the maximum reduction in thigh titre)
MRSA 33591 [3] = assay: Minimal inhibitory concentration (MIC), broth microdilution, MRSA 33591; conditions: Staphylococcus aureus, read-out: MIC MRSA 33591
MSSA 13709 = assay: Minimal inhibitory concentration (MIC), broth microdilution, MSSA 13709; conditions: Staphylococcus aureus, read-out: MIC MSSA 13709

Q: For `CN[C@H](CC(C)C)C(=O)N[C@H]1C(=O)N[C@@H](CC(N)=O)C(=O)N[C@H]2C(=O)N[C@H]3C(=O)N[C@H](C(=O)N[C@H](C(=O)O)c4cc(O)cc(O)c4-c4cc3ccc4O)[C@H](O)c3ccc(c(Cl)c3)Oc3cc2cc(c3O[C@@H]2O[C@H](CO)[C@@H](O)[C@H](O)[C@H]2O[C@H]2C[C@](C)(N)[C@H](O)[C@H](C)O2)Oc2ccc(cc2Cl)[C@H]1O` [Vancomycin, vancomycin], which “concentration at which bactericidal” value (MRSA 33591 [1]) is on record?
A: 4 µg/mL

Q: What about the ED50 [2] of the same compound?
A: 9 mg/kg

Q: What about the MIC (MRSA 33591 [3]) of the same compound?
A: 2 µg/mL (≈ 1.38 µM)

Q: And the MIC (MSSA 13709)?
A: 1 µg/mL (≈ 0.69 µM)
